This is an account of results in US20160361314A1, “COMBINATION OF AN ALK INHIBITOR AND A CDK INHIBITOR FOR THE TREATMENT OF CELL PROLIFERATIVE DISEASES” (NOVARTIS AG, priority 2013, published 2016).

Molecules are shown by their SMILES.

Holding throughout (assay): Loewe additivity (CHALICE) synergy screen, CellTiter-Glo viability, 7x7 dose matrix
Common to all, as to format: cell-based
On the technique in general: In ATP-based viability assays light output follows the ATP content of the culture.

The subject of assay [1] is LAN-5 human neuroblastoma cells. On the set-up: key to Max Combo Effect: growth inhibition scale; 100 = stasis. The settings on record: LAN-5 (R1275Q). How it is done: (§1) The synergistic interaction of drug combinations were assessed based on the Loewe Additivity Model using Chalice software [CombinatoRx, Cambridge Mass.]). […] 27:659-66. The software compares the response (% inhibition or % reduction of cell viability) of drug treatment from a combination of two agents to the response of the agents acting alone, against the drug-with-itself dose-additive reference model (the Loewe Additivity Model). Deviations from dose additives can be assessed numerically with a “synergy score” which quantifies the overall strength of combination effect. A synergy score >0 indicates a synergistic combination. In order to ensure only strongly synergistic combinations were selected, the acceptance criteria were set at a higher level. Strongly synergistic combinations were defined as having both a synergy score >2, a synergy score that is twice as large as the background (non-synergy) model would predict, and a maximum efficacy of >100, a value equivalent to stasis, as determined from the growth inhibition calculation.
(§2) After treatment, cell viabilty (quantity of viable cells) for each test mixtures were determined by the CellTiter-Glo® (CTG) luminescent cell viability assay (Promega) described in the Assay section, infra. […] The response to treatment (% reduction of cell viability) was analyzed using Chalice software [CombinatoRx, Cambridge Mass.]). Data evaluation and graph generation were performed using Microsoft Excel software and Chalice software.
(§3) The combinations were tested in duplicate using a 7×7 dose matrix block in 1536 well format with a cell proliferation readout as described in the Assay section infra.
(§4) All synergy calculations were performed using CHALICE software package from Zalicus and potential synergistic interactions between compound combinations were assessed using the Excess Inhibition 2D matrix according to the Loewe additivity model and were reported as synergy score (Table 10) (Lehar et al). Strongly synergistic combination were identified as having both (1) a synergy score greater than 2, a synergy score that is twice as large as the background (non-synergy) model would predict, and (2) a maximum efficacy of >100, a value roughly equivalent to stasis, as determined from the growth inhibition calculation.
(§5) Cell viability were determined by measuring cellular ATP content using the CellTiter-Glo® (CTG) luminescent cell viability assay (Promega). […] Reduced and enhanced luminescent signal values (responses) were calculated relative to untreated (control) cells, and the calculated signal value proportional to the cell viability.
(§6) Synergistic combinations were identified based on the Loewe Addivity Model. To measure the effects of drug combinations on the cell viability, cells from the 20 cell lines listed in Table 1 above were seeded into 1536-well assay plates at a density 300 cells per well in a 7 μL final volume and incubated at 37° C. overnight in a GNF Systems incubator with 95% RH and 5% CO2.
(§7) A six-point dose response curve for the test compounds were prepared in a 384 well ECHO compatible source plate (Labcyte P-05525) with 3-fold serial dilution series. For example, for a six-point dose response curve and a top compound concentration of 5 mM, the concentration of the compounds in the source well were 5 mM, 1.67 mM, 0.56 mM, 0.19 mM, 0.06 mM and 0.02 mM.
(§8) Approximately 18 hours after plating, compound combinations were generated on the fly by transferring 7.5 nL of compound from the pre-diluted source plates using the Labcyte ECHO555 integrated onto the ACP-1 system with replicate plates per cell line; the final DMSO concentration per well was 0.2%. It is noted that the total volume in the wells was 7 μL.
(§9) The well at the intersection of the first column and first row which received no compound was dosed with 2×7.5 nL of DMSO and served as control.

Assay [2] has as its system NB-1 human neuroblastoma cells. Further details: key to Max Combo Effect: growth inhibition scale; 100 = stasis. The settings on record: for Max Combo Effect: in % (unit assumed). The procedure: as §1, §2, §3, §4, §5, §6, §7, §8, §9
The subject of assay [3] is SK-N-AS human neuroblastoma cells. Further details: key to Max Combo Effect: growth inhibition scale; 100 = stasis. The settings on record: SK-N-AS (WT); for Max Combo Effect: in % (unit assumed). How it is done: as §1, §2, §3, §4, §5, §6, §7, §8, §9
Assay [4] has as its system LAN-1 human neuroblastoma cells. Further details: key to Synergy score (Mean): Loewe excess inhibition synergy score; >0 synergistic; key to Max Combo Effect: growth inhibition scale; 100 = stasis. The settings on record: LAN-1 (F1174L). How it is done:
as §1, §2
The % inhibition (reduction in cell viability) by the drug treatments were recorded in the block In the dose matrix (left); the single agent treatment at the far left column and the bottom row, and the combinations in the remaining 6x6 combination blocks. The differences between the data in the dose matrix and the expected inhibition value generated by the Loewe model were reported in the Loewe Excess matrix. In this Excess Inhibition matrix, synergy is defined as values>0; that is inhibition greater than what would be expected from a simple additive interaction. Antagonism is defined as values<0; that is inhibition […] than what would be expected from a simple additive interaction. The synergy score for the drug treatments were computed taken into account of the entire 6×6 combination blocks within the matrix.
as §3, §4, §5
Synergistic combinations were identified based on the Loewe Addivity Model.

Assay [5] deals with NGP human neuroblastoma cells. Further details: key to Synergy score (Mean): Loewe excess-inhibition synergy score; >0 synergistic, >2 strong; key to Max Combo Effect: growth inhibition scale; 100 = stasis. The settings on record: NGP (WT). How it is done: The synergistic interaction of drug combinations were assessed based on the Loewe Additivity Model using Chalice software [CombinatoRx, Cambridge Mass.]). […] The software compares the response (% inhibition or % reduction of cell viability) of drug treatment from a combination of two agents to the response of the agents acting alone, against the drug-with-itself dose-additive reference model (the Loewe Additivity Model). Deviations from dose additives can be assessed numerically with a “synergy score” which quantifies the overall strength of combination effect. A synergy score >0 indicates a synergistic combination. In order to ensure only strongly synergistic combinations were selected, the acceptance criteria were set at a higher level. Strongly synergistic combinations were defined as having both a synergy score >2, a synergy score that is twice as large as the background (non-synergy) model would predict, and a maximum efficacy of >100, a value equivalent to stasis, as determined from the growth inhibition calculation.
as §2, §5, §6, §8, §9
Following compound addition, the plates were returned to the incubator for 120 hours. The effects of the combinations on cellular viability were assessed with the addition of Cell Titer Glo (Promega G7573) using one of the GNF Bottle Valve dispensers on the ACP-1 system; plates were then incubated at room temperature for ten minutes and read on the integrated Perkin Elmer Viewlux (2 second exposure, 2×bin, high sensitivity). The raw data was normalized using the DMSO-treated cell control well within each plate.
All synergy calculations were performed using CHALICE software from Zalicus. […] Potential synergistic interactions between compound combinations were assessed using the Excess Inhibition 2D matrix according to the Loewe Additivity Model and are reported as synergy score.
Compounds were combined with themselves to determine the effect of assay noise on the synergy assessment parameters of the expected dose-additive interaction. Synergistic combination hits (strongly synergistic) were identified as having both a synergy score >2, a synergy score that is twice as large as the background model (non-synergy) would predict, and a maximum efficacy of >100, a value equivalent to stasis, as determined from the growth inhibition calculation.

In the case of `Cc1cc(Nc2ncc(Cl)c(Nc3ccccc3S(=O)(=O)C(C)C)n2)c(OC(C)C)cc1C1CCNCC1` [Compound A1, 5-chloro-N2-(2-isopropoxy-5-methyl-4-(piperidin-4-yl)phenyl)-N4-[2-(propane-2-sulfonyl)-phenyl]-pyrimidine-2,4-diamine], the “Max Combo Effect” value in assay [1] (Table 2) was found to be 166.1; in assay [2] (NB-1 (WT Amp), Table 2), 181.9; in assay [3] (Table 2), 42.4; in assay [4] (Table 2) it was 114.2; in assay [5] (Table 2) it was 104.1. Moreover, the “Synergy score (Mean)” value in assay [1] (Table 2) is 1.731; in assay [2] (NB-1 (WT Amp), Table 2), 1.607; in assay [3] (Table 2), 0.374; in assay [4] (Table 2, listed as Cmpd A1 Self Cross), 1.011; in assay [4] (Table 2, listed as Cpd A1×A1) it was 1.01; in assay [5] (Table 2), 0.822.
`Cc1cc(Nc2nc(Nc3ccccc3S(=O)(=O)C(C)C)c3cn[nH]c3n2)c(OC(C)C)cc1C1CCN(C)CC1` [Compound A2, N6-(2-isopropoxy-5-methyl-4-(1-methylpiperidin-4-yl)phenyl)-N4-(2-(isopropylsulfonyl)phenyl)-1H-pyrazolo[3,4-d]pyrimidine-4,6-diamine]: the “Max Combo Effect” value in assay [1] (Table 3) came to 196.81; in assay [2] (NB-1 (WT_Amp), Table 3), 193.34; in assay [3] (Table 3), 61.99; in assay [5] (Table 3), 184.04. Besides, the “Synergy score (Mean)” value in assay [1] (Table 3) was 0.87; in assay [2] (NB-1 (WT_Amp), Table 3), “identified as synergistic”; in assay [2] (NB-1 (WT_Amp), Table 3, listed as Cmpd A2 Self Cross) it was 2.97; in assay [3] (Table 3) it was 0.20; in assay [5] (Table 3) it was 0.84.
Consider `C[C@@H](Oc1cc(-c2cnn(C3CCNCC3)c2)cnc1N)c1c(Cl)ccc(F)c1Cl` [Compound A3, (R)-3-(1-(2,6-dichloro-3-fluorophenyl)ethoxy)-5-(1-(piperidin-4-yl)-1H-pyrazol-4-yl)pyridin-2-amine, reference compound], for which the “Synergy score (Mean)” value in assay [3] (Table 3) was found to be 0.19; in assay [4] (Table 3), 0.63; in assay [5] (Table 3), 0.01. Further, the “Max Combo Effect” value is listed as 55.78 in assay [3] (Table 3), 77.73 in assay [4] (Table 3) and 11.39 in assay [5] (Table 3).
`CN(C)C(=O)c1cc2cnc(Nc3ccc(N4CCNCC4)cn3)nc2n1C1CCCC1` [Compound B, 7-cyclopentyl-N,N-dimethyl-2-((5-(piperazin-1-yl)pyridin-2-yl)amino)-7H-pyrrolo[2,3-d]pyrimidine-6-carboxamide]: the “Max Combo Effect” value in assay [1] (Table 2) worked out at 99.2; in assay [1] (Table 3) it was 73.59; in assay [2] (NB-1 (WT Amp), Table 2), 111.0; in assay [2] (NB-1 (WT_Amp), Table 3), 40.57; in assay [3] (Table 2), 64.7; in assay [4] (Table 2), 142.3. Also, the “Max Combo Effect” value in assay [4] (Table 3) was found to be 62.78; in assay [5] (Table 2), 31.2; in assay [5] (Table 3), 17.0. The “Synergy score (Mean)” value was 1.161 in assay [1] (Table 2); 0.57 in assay [1] (Table 3); 1.429 in assay [2] (NB-1 (WT Amp), Table 2); 0.34 in assay [2] (NB-1 (WT_Amp), Table 3); 0.503 in assay [3] (Table 2); 0.48 in assay [3] (Table 3). For the same compound, the results for the “Synergy score (Mean)” value in assay [4] (Table 3), in assay [5] (Table 2) and in assay [5] (Table 3) were 0.25, 0.084 and 0.01, respectively.
